The record followed here is patent publication US20140127827A1, “METHOD FOR DETECTION OF ANTIGEN USING FLUORESCENCE RESONANCE ENERGY TRANSFER IMMUNOASSAY” (priority 2012, published 2014).

Type in all cases: binding
Assay [1] deals with anti-ZEN antibody. Nature of the assay: FRET immunoassay using an intact antibody (ZEN/anti-ZEN conjugate). The note with it: 0, 10, 100 ng/mL; 25 mM MEST pH 6.0; excitation 280 nm. Here is the method:
(§1) Using 25 mM MEST buffer solution (containing 0.3% Tween 20 in MES buffer solution, pH 6.0), mycotoxins of various concentrations (0 ng/mL, 10 ng/mL and 100 ng/mL) were reacted with antibodies having a constant concentration at room temperature for 20 minutes to obtain mycotoxin/antibody conjugates (AFB1/anti-AFB1 conjugate, OTA/anti-OTA conjugate, and ZEN/anti-ZEN conjugate). The obtained mycotoxin/antibody conjugates were excited at 280 nm to obtain fluorescence spectra (FIG. 4). Referring to FIG. 4, it can be seen that, as the concentration of mycotoxins (AFB1, OTA and ZEN) increases, the fluorescence intensity at a wavelength of 350 nm decreases.

For assay [2], the system named is anti-OTA antibody. Nature of the assay: FRET immunoassay using an intact antibody (OTA/anti-OTA conjugate). The note with it: 0, 10, 100 ng/mL; 25 mM MEST pH 6.0; excitation 280 nm. Here is the method: as §1
Assay [3] relates to anti-AFB1 Fab. Nature of the assay: FRET immunoassay using Fab fragment (anti-AFB1 Fab), incl. specificity to OTA. The method, then:
Under the condition of 25 mM MEST buffer solution (pH 6.0), AFB1 of various concentrations (0, 0.1, 0.2, 0.5, 1, 2, 10, 20, 50 and 100 ng/mL) was reacted with anti-AFB1 Fab fragments having a constant concentration at room temperature for 20 minutes to obtain AFB1/anti-AFB1 Fab conjugates. The obtained AFB1/anti-AFB1 Fab conjugates were excited at 280 nm to obtain fluorescence spectra (FIG. 7). Referring to FIG. 7, it can be seen that, as the concentration of AFB1 increases, the fluorescence intensity at a wavelength of 350 nm decreases. Particularly, it can also be seen that sensitivity of FRET immunoassay using Fab fragments was much better than that of FRET immunoassay using an intact antibody of Example 1 (FIG. 8). Further, as a result of analysis by lowering the concentration of AFB1, it can be seen that approximately up to 0.09 ng/mL of AFB1 could be detected through FRET immunoassay using Fab fragments. This corresponds to a near 10-fold improvement in terms of sensitivity as compared to FRET immunoassay where an intact antibody of Example 1 was used. […]

The test system of assay [4] is anti-AFB1 antibody. Particulars: pH 6.
For assay [5], the system named is anti-BaP. Nature of the assay: FRET immunoassay for benzopyrene using antibodies (BaP/anti-BaP conjugate), incl. specificity to pyrene and DBA. The note with it: same concentration as BaP (5 and 20 ng/mL), 10 mM NaHCO3 pH 9.0. The method, then: Under the condition of 10 mM NaHCO3 buffer solution (pH 9.0), BaPs having various concentrations (0, 0.1, 0.2, 0.5, 1, 2, 5, 10, 20 and 50 ng/mL) were reacted with antibodies having constant concentration at room temperature for 20 minutes to obtain BaP/anti-BaP conjugates. The obtained BaP/anti-BaP conjugates were excited at 280 nm to obtain a fluorescence spectrum (FIG. 18). Referring to FIGS. 18 and 19, it can be seen that, as the concentration of BaP increases, fluorescence intensity at a wavelength of 350 nm decreases, while fluorescence intensity at 435 nm increases at the same time.
Under the condition of 10 mM NaHCO3 buffer solution (pH 9.0), specificity of mouse IgG antibody (anti-Mouse IgG) to 5 ng/mL and 20 ng/mL BaP was investigated using FRET immunoassay. […] Further, specificity of anti-BaP to pyrene and dibenz[a,h]anthracene (DBA) having the same concentration as BaP was investigated.

The subject of assay [6] is anti-NPT. Nature of the assay: FRET immunoassay for neopterin using antibodies (NPT/anti-NPT conjugate), incl. specificity to BPT. Particulars: 10 mM NaHCO3 pH 9.0. The method, then:
Under the condition of 10 mM NaHCO3 buffer solution (pH 9.0), NPT of various concentrations (0 ng/mL, 0.2 ng/mL, 2 ng/mL and 20 ng/mL) was reacted with antibodies having a constant concentration at room temperature for 20 minutes to obtain NPT/anti-NPT conjugates. The obtained NPT/anti-NPT conjugates were excited at 280 nm to obtain fluorescence spectra (FIG. 14). Referring to FIG. 14, it can be seen that, as the concentration of NPT increases, the fluorescence intensity at a wavelength of 350 nm decreases.
Under the condition of 10 mM NaHCO3 buffer solution (pH 9.0), specificity of mouse IgG antibody (anti-Mouse IgG), IFN-γ antibody (anti-IFN-γ) and CRP antibody (anti-CRP) to 2 ng/mL and 20 ng/mL of NPT was investigated using FRET immunoassay. […] Further, specificity of anti-NPT with BPT having the same concentration as NPT was investigated.

On to `C[C@H]1CCCC(=O)CCC/C=C/c2cc(O)cc(O)c2C(=O)O1` [ZEN, zearalenone], for which the “fluorescence intensity at 350 nm as concentration increases” value in assay [1] is on record as “decreases”.

`C[C@@H]1Cc2c(Cl)cc(C(=O)N[C@@H](Cc3ccccc3)C(=O)O)c(O)c2C(=O)O1` [OTA, ochratoxin A]: the “fluorescence intensity at 350 nm as concentration increases” value in assay [2] was “decreases”. Further, the “binding to anti-AFB1 Fab (specificity)” value in assay [3] (OTA at same concentration as AFB1 (10 and 50 ng/mL), MEST buffer pH 6.0) was “no antigen/antibody binding”.

Turning to `COc1cc2c(c3oc(=O)c4c(c13)CCC4=O)[C@@H]1C=CO[C@@H]1O2` [AFB1, aflatoxin], the “fluorescence intensity at 350 nm as concentration increases” value in assay [4] and in assay [3] (pH 6) was “decreases” each time.

For the compound `c1cc2ccc3cccc4ccc(c1)c2c34` [pyrene], in assay [5], the “binding to anti-BaP (specificity)” value is given as “a little antigen/antibody binding”.

As for biopterin [BPT], in assay [6] (BPT at same concentration as NPT (2 and 20 ng/mL)), the “binding to anti-NPT (specificity)” value is “no antigen/antibody binding”.

On to `c1ccc2c(c1)ccc1cc3c(ccc4ccccc43)cc12` [DBA, dibenz[a,h]anthracene], for which the “binding to anti-BaP (specificity)” value in assay [5] was “a little antigen/antibody binding”.

With `Nc1nc2ncc([C@H](O)[C@H](O)CO)nc2c(=O)[nH]1` [NPT, neopterin], the “fluorescence intensity at 350 nm as concentration increases” value in assay [6] (0, 0.2, 2, 20 ng/mL NPT, excitation 280 nm) was “decreases”.
